Measurements: PubChem BioAssay AID248 (DTP/NCI, 2004)
Several values for one entry are separate records, joined by “and”; a condition that tells them apart may be missing. Equal entries are not always repeated. Toxic doses and inconclusive results are not listed. No stated cut-off is given here; in the data, active means T/C of 150% or more; inactive means T/C below 125%.

System: L1210 leukemia ip in BDF1 mice, survival T/C
Assay: NCI In Vivo Anticancer Drug Screen. Data for tumor model L1210 Leukemia (intraperitoneal) in B6D2F1 (BDF1) mice
Conditions: endpoint: mean survival time, higher = longer survival
Method in brief: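 Transplantable tumor model; survival measured in treated vs vehicle control mice. Value = treated/control.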

[1] = dose: 100.0 mg/kg/injection, schedule: Q01DX009 (ip), vehicle: saline with Tween-80
[2] = dose: 200.0 mg/kg/injection, schedule: Q01DX009 (ip), vehicle: saline with Tween-80
[3] = dose: 100.0 mg/kg/injection, schedule: Q04DX002 (ip), vehicle: Klucel (hydroxypropylcellulose) (HPC)
[4] = dose: 200.0 mg/kg/injection, schedule: Q04DX002 (ip), vehicle: Klucel (hydroxypropylcellulose) (HPC)
[5] = dose: 400.0 mg/kg/injection, schedule: Q04DX002 (ip), vehicle: Klucel (hydroxypropylcellulose) (HPC)
[6] = dose: 100.0 mg/kg/injection, schedule: Q01DX001 (ip), vehicle: saline
[7] = dose: 200.0 mg/kg/injection, schedule: Q01DX001 (ip), vehicle: saline
[8] = dose: 400.0 mg/kg/injection, schedule: Q01DX001 (ip), vehicle: saline
[9] = dose: 100.0 mg/kg/injection, schedule: Q04DX003 (ip), vehicle: Klucel (hydroxypropylcellulose) (HPC)
[10] = dose: 200.0 mg/kg/injection, schedule: Q04DX003 (ip), vehicle: Klucel (hydroxypropylcellulose) (HPC)
[11] = dose: 400.0 mg/kg/injection, schedule: Q04DX003 (ip), vehicle: Klucel (hydroxypropylcellulose) (HPC)
[12] = dose: 100.0 mg/kg/injection, schedule: Q01DX001 (ip), vehicle: Klucel (hydroxypropylcellulose) (HPC)
[13] = dose: 200.0 mg/kg/injection, schedule: Q01DX001 (ip), vehicle: Klucel (hydroxypropylcellulose) (HPC)
[14] = dose: 400.0 mg/kg/injection, schedule: Q01DX001 (ip), vehicle: Klucel (hydroxypropylcellulose) (HPC)
[15] = dose: 100.0 mg/kg/injection, schedule: Q01DX001 (ip), vehicle: carboxymethylcellulose (CMC)
[16] = dose: 200.0 mg/kg/injection, schedule: Q01DX001 (ip), vehicle: carboxymethylcellulose (CMC)
[17] = dose: 400.0 mg/kg/injection, schedule: Q01DX001 (ip), vehicle: carboxymethylcellulose (CMC)
[18] = dose: 100.0 mg/kg/injection, schedule: Q04DX003 (ip), vehicle: saline with Tween-80
[19] = dose: 200.0 mg/kg/injection, schedule: Q04DX003 (ip), vehicle: saline with Tween-80
[20] = dose: 400.0 mg/kg/injection, schedule: Q04DX003 (ip), vehicle: saline with Tween-80

Measured: T/C

COC(=O)C(Nc1ccc([N+](=O)[O-])cc1[N+](=O)[O-])C(C)O (stereo not given)
inactive: dose: 100.0 mg/kg/injection, schedule: Q01DX001 (ip), vehicle: other 104 % of control | dose: 200.0 mg/kg/injection, schedule: Q01DX001 (ip), vehicle: other 101 % of control | dose: 400.0 mg/kg/injection, schedule: Q01DX001 (ip), vehicle: other 111 % of control

O=S1(=O)CC(Cl)C(I)C1 (stereo not given)
inactive: [1] 102 % of control | [2] 109 % of control

CC(C)c1cc(O)ccc1N(C)C (tested in a mixture with another compound)
inactive: dose: 3.2 micrograms/kg/injection, schedule: Q01DX009 (ip), vehicle: saline 97 % of control | dose: 8.0 micrograms/kg/injection, schedule: Q01DX009 (ip), vehicle: saline 90 % of control | dose: 16.0 micrograms/kg/injection, schedule: Q01DX009 (ip), vehicle: saline 87 % of control | dose: 32.0 micrograms/kg/injection, schedule: Q01DX009 (ip), vehicle: saline 90 % of control

CC12CC3(C)CC(Cl)(C1)CC(Cl)(C2)C3
inactive: [3] 90 % of control | [4] 102 % of control | [5] 119 % of control

CCOC(=O)/C=C(/CC(=O)OCC)Nc1ccc(C)cc1
inactive: [6] 89 % of control | [7] 99 % of control | [8] 97 % of control

O=C1NC(=O)C(=O)N1
inactive: dose: 100.0 mg/kg/injection, schedule: Q04DX003 (ip), vehicle: saline 96 % of control | dose: 200.0 mg/kg/injection, schedule: Q04DX003 (ip), vehicle: saline 96 % of control | dose: 400.0 mg/kg/injection, schedule: Q04DX003 (ip), vehicle: saline 86 % of control

FC(F)(F)c1ccc(Cl)c(NC2=NCCCS2)c1
inactive: dose: 10.0 mg/kg/injection, schedule: Q01DX009 (ip), vehicle: saline 107 % of control | dose: 20.0 mg/kg/injection, schedule: Q01DX009 (ip), vehicle: saline 97 % of control | dose: 40.0 mg/kg/injection, schedule: Q01DX009 (ip), vehicle: saline 96 % of control | dose: 75.0 mg/kg/injection, schedule: Q01DX009 (ip), vehicle: saline 95 % of control | dose: 100.0 mg/kg/injection, schedule: Q01DX009 (ip), vehicle: Klucel (hydroxypropylcellulose) (HPC) 96 % of control | [9] 97 % of control | dose: 200.0 mg/kg/injection, schedule: Q01DX009 (ip), vehicle: Klucel (hydroxypropylcellulose) (HPC) 97 % of control | [10] 95 % of control | [11] 94 % of control

CCCCCNCCO
inactive: dose: 75.0 mg/kg/injection, schedule: Q01DX001 (ip), vehicle: saline 105 % of control | dose: 150.0 mg/kg/injection, schedule: Q01DX001 (ip), vehicle: saline 105 % of control | dose: 300.0 mg/kg/injection, schedule: Q01DX001 (ip), vehicle: saline 109 % of control

CC1=CC(=O)C2C(C)(O1)C1C(=O)C=C(C)OC21C (stereo not given)
inactive: [12] 93 % of control | [9] 101 % of control | [13] 101 % of control | [10] 100 % of control | [14] 104 % of control | [11] 92 % of control

O=C(CCCN1CCC(O)CC1)c1ccc(N2CC=C(c3ccccc3)CC2)cc1
inactive: [3] 104 % of control | [4] 100 % of control

CCOP(=S)(N/N=C\C(C)(C)C1CCCCC1)OCC
inactive: [15] 94 % of control | [16] 91 % of control | [17] 98 % of control

O=C1CC(N2C(=O)C3C4CCC(O4)C3C2=O)C(=O)N1 (stereo not given)
inactive: [18] 100 % of control | [19] 108 % of control | [20] 104 % of control

O=C(O)c1cc(-c2ccccc2Cl)nc2ccccc12
inactive: [6] 96 % of control | [7] 94 % of control | [8] 97 % of control

O=C(c1ccccc1)c1ccc(Cl)c(Cl)c1
inactive: [9] 98 % of control | [10] 89 % of control | [11] 93 % of control

Cc1cc([N+](=O)[O-])c(Cl)c([N+](=O)[O-])c1
inactive: [15] 91 % of control | [16] 89 % of control | [17] 100 % of control

CCOC(=O)CC1c2nc3ccccc3cc2CN1C(=O)CCOCc1ccccc1 (stereo not given)
inactive: dose: 10.0 mg/kg/injection, schedule: Q04DX003 (ip), vehicle: alcohol 92 % of control | dose: 20.0 mg/kg/injection, schedule: Q04DX003 (ip), vehicle: alcohol 92 % of control | dose: 40.0 mg/kg/injection, schedule: Q04DX003 (ip), vehicle: alcohol 100 % of control | dose: 80.0 mg/kg/injection, schedule: Q04DX003 (ip), vehicle: alcohol 96 % of control | dose: 160.0 mg/kg/injection, schedule: Q04DX003 (ip), vehicle: alcohol 89 % of control

CCN(CC)c1cccc(OC(=O)Nc2ccc(SC)cc2)c1
inactive: [1] 95 % of control | [2] 103 % of control | dose: 400.0 mg/kg/injection, schedule: Q01DX009 (ip), vehicle: saline with Tween-80 97 % of control

O=[N+]([O-])c1cc(C(F)(F)F)ccc1Oc1ccccc1
inactive: [18] 95 % of control | [19] 110 % of control | [20] 101 % of control

Cc1ccc(N=Cc2cc(I)cc(I)c2O)cc1.Cc1ccc(N=Cc2cc(I)cc(I)c2O)cc1.[Co]
inactive: [18] 92 % of control | [19] 102 % of control and 91 % of control | [20] 96 % of control and 89 % of control

O=C(Nc1cc(NC(=O)Nc2cccc(C3=NCCN3)c2)cc(C(=O)Nc2ccccc2)c1)Nc1cccc(C2=NCCN2)c1
inactive: dose: 15.0 mg/kg/injection, schedule: Q01DX Z (ip), vehicle: carboxymethylcellulose (CMC) 94 % of control | dose: 30.0 mg/kg/injection, schedule: Q01DX Z (ip), vehicle: carboxymethylcellulose (CMC) 103 % of control | dose: 60.0 mg/kg/injection, schedule: Q01DX Z (ip), vehicle: carboxymethylcellulose (CMC) 97 % of control | dose: 120.0 mg/kg/injection, schedule: Q01DX Z (ip), vehicle: carboxymethylcellulose (CMC) 107 % of control and 91 % of control | dose: 240.0 mg/kg/injection, schedule: Q01DX Z (ip), vehicle: carboxymethylcellulose (CMC) 104 % of control

CN(C)/N=C1\CCc2ccccc21
inactive: [6] 106 % of control | dose: 100.0 mg/kg/injection, schedule: Q01DX009 (ip), vehicle: saline 102 % of control | [7] 113 % of control | [8] 101 % of control

NC1=NCN(c2ccc(OCCOc3ccc([N+](=O)[O-])cc3)cc2)C(N)=N1
inactive: [12] 107 % of control | [13] 102 % of control | [14] 97 % of control

O=c1c2ccccc2[nH]c(=S)n1CCc1ccccn1
inactive: [3] 100 % of control | [4] 95 % of control | [5] 89 % of control

CSC(=S)NCC(=O)O
inactive: dose: 50.0 mg/kg/injection, schedule: Q01DX009 (ip), vehicle: saline with Tween-80 89 % of control | [1] 89 % of control | [2] 101 % of control
